According to patent US20260248799A1, “COMBINATIONS OF RETINALDEHYDE DEHYDROGENASE 1 (RALDH1) INHIBITORS AND IMMUNOSTIMULATORS AND METHODS USING SAME” (The Trustees of the University of Pennsylvania, priority 2023, published 2026):

Columns and labels:
Adrenergic β1 = molecular target: T1, Adrenergic β1 (Homo sapiens, UniProt P08588); assay: Safetyscreen: Adrenergic β1; format: binding; conditions: read-out: % Inh. Adrenergic β1
T1 construct: Eurofins Cerep Panlabs (contract panel)

Glutamate, NMDA, Agonism = assay: Safetyscreen: NMDA, Agonism; format: binding, rat; conditions: 10 μM
Glutamate, AMPA = assay: Safetyscreen: Glutamate, AMPA; format: binding, rat; conditions: 10 μM
Adrenergic β2 = molecular target: T2, Adrenergic β2 (Homo sapiens, UniProt P07550); assay: Safetyscreen: Adrenergic β2; format: binding; conditions: read-out: % Inh. Adrenergic β2
T2 construct: Eurofins Cerep Panlabs (contract panel)

Glutamate, NMDA, Glycine = assay: Safetyscreen: NMDA, Glycine; format: binding, rat; conditions: 10 μM
Glucocorticoid = molecular target: T3, Glucocorticoid (Homo sapiens, UniProt P04150); assay: Safetyscreen: Glucocorticoid; format: binding; conditions: read-out: % Inh. Glucocorticoid
T3 construct: purchased Eurofins Cereps Panlabs
T3 sequence (P04150 whole entry): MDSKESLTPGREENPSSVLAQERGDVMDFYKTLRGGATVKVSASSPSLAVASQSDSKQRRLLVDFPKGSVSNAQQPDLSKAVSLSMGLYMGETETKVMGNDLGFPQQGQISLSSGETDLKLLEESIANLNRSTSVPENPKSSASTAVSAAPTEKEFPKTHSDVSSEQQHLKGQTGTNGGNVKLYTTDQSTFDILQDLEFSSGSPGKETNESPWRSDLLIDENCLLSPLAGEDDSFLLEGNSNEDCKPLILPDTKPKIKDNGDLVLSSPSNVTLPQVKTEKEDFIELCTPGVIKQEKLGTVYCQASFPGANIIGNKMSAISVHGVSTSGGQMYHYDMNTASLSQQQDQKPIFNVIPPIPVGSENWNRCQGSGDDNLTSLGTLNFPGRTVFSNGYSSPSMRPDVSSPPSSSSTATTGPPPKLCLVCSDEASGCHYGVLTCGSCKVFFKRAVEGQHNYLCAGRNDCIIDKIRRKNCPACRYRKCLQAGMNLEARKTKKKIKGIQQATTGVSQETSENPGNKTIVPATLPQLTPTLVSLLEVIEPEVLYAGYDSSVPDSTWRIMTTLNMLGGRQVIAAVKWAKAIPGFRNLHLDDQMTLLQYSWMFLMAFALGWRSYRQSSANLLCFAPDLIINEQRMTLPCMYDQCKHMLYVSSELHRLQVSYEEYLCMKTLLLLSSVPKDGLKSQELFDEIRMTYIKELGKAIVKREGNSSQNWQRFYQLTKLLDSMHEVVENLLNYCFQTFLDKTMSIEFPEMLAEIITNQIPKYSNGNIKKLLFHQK

Opiate μ(OP3, MOP) = molecular target: T4, Opiate μ(OP3, MOP) (Homo sapiens, UniProt P35372); assay: Safetyscreen: Opiate μ; format: binding; conditions: read-out: % Inh. Opiate μ(OP3, MOP)
T4 construct: Eurofins Cereps Panlabs (contract panel)
T4 sequence (P35372 whole entry): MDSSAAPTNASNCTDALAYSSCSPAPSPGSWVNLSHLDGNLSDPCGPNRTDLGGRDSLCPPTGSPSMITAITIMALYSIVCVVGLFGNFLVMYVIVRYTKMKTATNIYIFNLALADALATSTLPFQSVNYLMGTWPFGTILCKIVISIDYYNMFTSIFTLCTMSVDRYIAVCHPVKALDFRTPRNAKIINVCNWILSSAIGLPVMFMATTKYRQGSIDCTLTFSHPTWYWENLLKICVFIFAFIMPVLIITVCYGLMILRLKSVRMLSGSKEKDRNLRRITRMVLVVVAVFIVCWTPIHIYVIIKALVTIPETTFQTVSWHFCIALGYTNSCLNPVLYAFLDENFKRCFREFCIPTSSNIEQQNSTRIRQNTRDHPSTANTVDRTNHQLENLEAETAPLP

Muscarinic M1 = molecular target: T5, Muscarinic M1 (Homo sapiens, UniProt P11229); assay: Safetyscreen: Muscarinic M1; format: binding; conditions: read-out: % Inh. Muscarinic M1
T5 construct: Eurofins Cereps Panlabs (contract panel)
T5 sequence (P11229 whole entry): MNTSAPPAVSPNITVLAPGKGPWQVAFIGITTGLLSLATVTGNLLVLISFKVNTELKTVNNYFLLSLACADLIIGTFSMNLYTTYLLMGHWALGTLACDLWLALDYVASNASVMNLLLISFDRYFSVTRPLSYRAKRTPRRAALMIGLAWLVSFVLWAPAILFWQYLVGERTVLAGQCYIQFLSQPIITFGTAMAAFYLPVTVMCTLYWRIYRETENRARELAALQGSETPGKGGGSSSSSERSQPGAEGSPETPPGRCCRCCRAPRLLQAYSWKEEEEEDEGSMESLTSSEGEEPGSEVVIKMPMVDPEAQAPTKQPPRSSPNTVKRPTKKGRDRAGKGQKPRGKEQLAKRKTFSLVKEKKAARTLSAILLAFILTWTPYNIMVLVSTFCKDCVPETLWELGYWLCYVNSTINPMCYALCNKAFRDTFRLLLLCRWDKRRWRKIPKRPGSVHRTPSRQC

Adrenergic α1B = molecular target: T6, Adrenergic α1B (Rattus norvegicus, UniProt P15823); assay: Safetyscreen: Adrenergic α1B; format: binding; conditions: read-out: % Inh. Adrenergic α1B
T6 construct: Eurofins Cerep Panlabs (contract panel)
T6 sequence (P15823 whole entry): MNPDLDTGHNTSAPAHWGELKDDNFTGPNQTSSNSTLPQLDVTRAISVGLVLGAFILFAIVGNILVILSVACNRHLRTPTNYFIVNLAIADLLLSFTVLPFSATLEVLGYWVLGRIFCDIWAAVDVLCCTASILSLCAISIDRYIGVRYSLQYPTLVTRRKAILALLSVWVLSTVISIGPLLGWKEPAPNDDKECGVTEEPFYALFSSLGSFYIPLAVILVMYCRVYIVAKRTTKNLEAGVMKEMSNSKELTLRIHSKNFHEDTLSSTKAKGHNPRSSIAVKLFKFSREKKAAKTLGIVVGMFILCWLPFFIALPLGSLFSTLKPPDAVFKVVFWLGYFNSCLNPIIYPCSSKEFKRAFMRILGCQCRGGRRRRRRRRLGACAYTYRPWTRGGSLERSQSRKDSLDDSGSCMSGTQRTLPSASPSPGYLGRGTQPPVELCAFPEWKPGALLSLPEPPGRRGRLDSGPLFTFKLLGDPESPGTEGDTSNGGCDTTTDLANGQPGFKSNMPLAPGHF

Cyclooxygenase COX-1 = molecular target: T7, Cyclooxygenase COX-1 (Homo sapiens, UniProt P23219); assay: Safetyscreen: COX-1; format: biochemical; conditions: read-out: % Inh. Cyclooxygenase COX-1
T7 construct: Eurofins Cerep Panlabs (contract panel)
T7 sequence (P23219 24-599): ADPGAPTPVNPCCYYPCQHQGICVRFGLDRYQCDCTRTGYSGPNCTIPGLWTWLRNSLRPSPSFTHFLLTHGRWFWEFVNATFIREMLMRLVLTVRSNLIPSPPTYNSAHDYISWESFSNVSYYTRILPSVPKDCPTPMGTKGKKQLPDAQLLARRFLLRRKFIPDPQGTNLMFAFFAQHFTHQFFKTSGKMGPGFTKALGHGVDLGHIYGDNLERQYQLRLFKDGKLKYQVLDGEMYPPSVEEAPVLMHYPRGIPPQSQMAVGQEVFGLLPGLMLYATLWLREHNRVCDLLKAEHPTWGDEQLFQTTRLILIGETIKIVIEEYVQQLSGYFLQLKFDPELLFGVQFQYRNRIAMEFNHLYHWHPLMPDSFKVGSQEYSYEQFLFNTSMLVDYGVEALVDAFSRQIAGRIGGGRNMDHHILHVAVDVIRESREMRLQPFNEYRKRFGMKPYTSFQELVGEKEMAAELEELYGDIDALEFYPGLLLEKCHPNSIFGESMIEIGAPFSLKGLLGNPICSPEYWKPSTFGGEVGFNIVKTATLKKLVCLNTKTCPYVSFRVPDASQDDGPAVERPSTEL

GABABIA = molecular target: T8, GABABIA (Homo sapiens, UniProt Q9UBS5); assay: Safetyscreen: GABABIA; format: binding; conditions: read-out: % Inh. GABABIA
T8 construct: purchased Eurofins Cereps Panlabs
T8 sequence (Q9UBS5 15-961 limits assumed): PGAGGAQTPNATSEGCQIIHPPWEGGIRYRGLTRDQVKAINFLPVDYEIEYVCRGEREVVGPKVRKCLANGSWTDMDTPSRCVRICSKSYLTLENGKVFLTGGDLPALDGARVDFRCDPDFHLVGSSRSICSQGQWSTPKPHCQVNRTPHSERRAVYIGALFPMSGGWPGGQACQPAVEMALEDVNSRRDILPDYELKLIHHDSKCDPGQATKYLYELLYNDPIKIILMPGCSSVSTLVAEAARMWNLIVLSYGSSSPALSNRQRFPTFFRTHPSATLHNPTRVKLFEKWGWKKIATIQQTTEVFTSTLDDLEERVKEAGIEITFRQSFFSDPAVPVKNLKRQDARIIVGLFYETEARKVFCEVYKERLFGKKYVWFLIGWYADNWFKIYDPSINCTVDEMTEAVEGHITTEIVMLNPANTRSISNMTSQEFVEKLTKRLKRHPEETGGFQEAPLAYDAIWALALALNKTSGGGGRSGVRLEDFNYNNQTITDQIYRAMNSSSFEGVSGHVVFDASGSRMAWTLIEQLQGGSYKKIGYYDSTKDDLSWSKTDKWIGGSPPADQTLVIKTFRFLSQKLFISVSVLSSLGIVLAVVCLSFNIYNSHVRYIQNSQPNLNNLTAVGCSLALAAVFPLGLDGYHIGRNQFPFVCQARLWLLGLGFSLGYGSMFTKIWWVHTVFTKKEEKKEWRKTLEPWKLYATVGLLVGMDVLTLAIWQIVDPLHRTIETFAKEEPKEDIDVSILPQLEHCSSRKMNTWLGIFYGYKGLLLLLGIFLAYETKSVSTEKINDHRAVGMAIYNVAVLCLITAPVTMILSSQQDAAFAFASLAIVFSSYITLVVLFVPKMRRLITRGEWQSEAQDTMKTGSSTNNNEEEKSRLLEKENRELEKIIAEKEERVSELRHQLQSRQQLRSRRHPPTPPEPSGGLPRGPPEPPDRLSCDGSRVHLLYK
T8 sequence (O75899 42-941 partner): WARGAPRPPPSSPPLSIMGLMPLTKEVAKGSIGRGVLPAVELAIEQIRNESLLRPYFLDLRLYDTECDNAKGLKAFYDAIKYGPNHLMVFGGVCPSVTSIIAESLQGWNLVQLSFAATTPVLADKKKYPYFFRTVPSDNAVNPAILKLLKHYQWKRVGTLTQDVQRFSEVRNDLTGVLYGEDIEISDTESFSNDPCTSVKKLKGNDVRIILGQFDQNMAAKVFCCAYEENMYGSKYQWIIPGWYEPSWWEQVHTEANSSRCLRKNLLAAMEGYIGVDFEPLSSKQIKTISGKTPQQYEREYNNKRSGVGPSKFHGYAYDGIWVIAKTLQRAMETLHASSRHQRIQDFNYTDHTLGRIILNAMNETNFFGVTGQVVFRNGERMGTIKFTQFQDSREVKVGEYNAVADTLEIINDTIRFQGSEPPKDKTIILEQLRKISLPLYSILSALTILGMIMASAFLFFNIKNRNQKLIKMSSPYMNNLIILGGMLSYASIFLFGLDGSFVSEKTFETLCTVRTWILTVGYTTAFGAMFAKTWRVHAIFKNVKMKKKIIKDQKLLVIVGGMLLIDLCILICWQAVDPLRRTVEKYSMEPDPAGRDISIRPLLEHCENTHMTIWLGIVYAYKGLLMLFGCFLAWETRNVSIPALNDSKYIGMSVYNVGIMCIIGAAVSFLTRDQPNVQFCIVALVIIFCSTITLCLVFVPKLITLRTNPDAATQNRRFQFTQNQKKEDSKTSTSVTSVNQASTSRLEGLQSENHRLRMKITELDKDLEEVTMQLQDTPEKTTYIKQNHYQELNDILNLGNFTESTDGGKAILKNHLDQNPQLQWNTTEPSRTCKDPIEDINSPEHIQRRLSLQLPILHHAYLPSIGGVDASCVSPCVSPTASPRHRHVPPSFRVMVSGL

Adenosine A1 = molecular target: T9, Adenosine A1 (Homo sapiens, UniProt P30542); assay: Safetyscreen: Adenosine A1; format: binding; conditions: read-out: % Inh. Adenosine A1
T9 construct: Eurofins Cerep Panlabs (contract panel)
T9 sequence (P30542 whole entry): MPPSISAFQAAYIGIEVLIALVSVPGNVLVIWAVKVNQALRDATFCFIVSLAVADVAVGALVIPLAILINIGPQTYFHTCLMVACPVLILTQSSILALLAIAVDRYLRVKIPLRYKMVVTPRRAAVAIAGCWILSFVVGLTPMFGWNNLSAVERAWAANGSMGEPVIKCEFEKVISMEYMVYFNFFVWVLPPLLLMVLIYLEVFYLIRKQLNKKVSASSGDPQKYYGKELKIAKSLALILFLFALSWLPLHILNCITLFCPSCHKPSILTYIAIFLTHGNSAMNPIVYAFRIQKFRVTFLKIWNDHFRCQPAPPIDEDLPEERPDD

Progesterone PR-B = molecular target: T10, Progesterone PR-B (Homo sapiens, UniProt P06401); assay: Safetyscreen: Progesterone PR-B; format: binding; conditions: read-out: % Inh. Progesterone PR-B
T10 construct: Eurofins Cereps Panlabs (contract panel)

Phosphodiesterase PDE4 = assay: Safetyscreen: PDE4; format: biochemical, human; conditions: 10 μM
[1] = molecular target: T11, Leukotriene, Cysteinyl CysLT1 (Homo sapiens, UniProt Q9Y271); assay: Safetyscreen: CysLT1; format: binding; conditions: read-out: % Inh. Leukotriene, Cysteinyl CysLT1
T11 construct: purchased Eurofins Cereps Panlabs

[2] = Toxicity observations with Raldh1-INH; conditions: mouse, in vivo
Method: Male CD1 or C57BL/6J mice between 6 and 8 weeks old and weighing approximately 20 to 30 grams were dosed with compound 86, compound 91, and compound 99 at 2 mg/kg (IV), 10 mg/kg (PO), and 10 or 30 mg/kg (IP). The compounds were formulated using a 20% hydroxypropyl-beta-cyclodextrin (HPbCD) solution in saline, was made on the day of dosing or directly prior to dosing. Each treatment group consisted of three mice, and plasma was collected at 5 minutes, 15 minutes, 30 minutes, 1 hour, 2 hours, 4 hours, 8 hours, 12 hours, and 24 hours post-dose for IV administration and at 15 minutes, 30 minutes, 1 hour, 2 hours, 4 hours, 8 hours, 12 hours, and 24 hours post-dose for PO administration. Approximately 0.025 mL of blood was collected from the dorsal metatarsal vein at each time point. […] Plasma samples were then stored in polypropylene tubes, quickly frozen, and kept at −75° C. until analyzed by LC/MS/MS. The following pharmacokinetic parameters were measured: Terminal half-life (T½), Concentration at immediately after injection (C0), Maximum concentration (Cmax), Time to reach max concentration (Tmax), Clearance (CL), Volume of distribution (Vd), Area under the curve (AUClast), and bioavailability (% F). Animals were also monitored during the in-life phase by once daily cage side observations; any adverse clinical signs were noted as part of the PK report.

[3] = tested on: murine monocytes from bone marrow; assay: Murine monocyte DC differentiation with SNU398 cells or conditioned media; format: cell-based, mouse; conditions: HCC cells pre-treated
From the text: FIGS. 22A-22E: RALDH1 inhibition blocks RA-mediated effects of HCC on monocyte differentiation. FIGS. 22A-22B: Circulating primary human monocytes from donors (FIG. 22A) or murine monocytes from bone marrow (FIG. 22B) were cocultured with SNU398 (Human HCC) cells or treated with SNU398-conditioned media (CM) in a DC differentiation system (GM-CSF and IL-4). Two-color histograms show the frequencies of DCs (CD11c^+CD1a^+ for human and CD11c^+MHCII^+ for mouse). The presence of SNU398 or its CM suppressed DC differentiation, which is reversed when SNU398 cells are treated with C86. Three or more independent experiments were performed with at least three replicates per experimental group. Unpaired t test, two-tailed. FIG. 22C: Huh7 (human HCC) cells were subcutaneously injected into flanks of NU/J mice. 12 days later the tumor size was about 50 mm^3 and C86 or vehicle treatment (10 mg/kg, i.p, daily injection) was started. […] The frequencies of the host (murine) DCs (CD45^+F4/80^−CD11C^+MHCII-high) and macrophages (CD45^+F4/80^+) are quantified in a bar graph. […] Shown are the representative FCM plot (histogram) and DC quantification (bar graph). […]
Monocytes were isolated from bone marrow of C57BL/6 mice using the Mouse BM Monocyte Isolation Kit (Miltenyi Biotec) according to manufacturer's instructions. Purity of monocyte was assessed by flow cytometry using CD11b, Ly6C, and Ly6G. […]

Q: Which inhibition at 10 µM (Adrenergic β1) does the source give for `CS(=O)(=O)N1CCN(C(=O)c2cnc3ccc(F)cc3c2N2CCC(C#N)(c3ccccc3)CC2)CC1` [Compound C-86, 1-(6-fluoro-3-(4-(methylsulfonyl)piperazine-1-carbonyl)quinolin-4-yl)-4-phenylpiperidine-4-carbonitrile] here?
A: Its inhibition at 10 µM is 3%.

Q: What about the “% Inh. Glutamate, NMDA, Agonism” value (Glutamate, NMDA, Agonism) of the same molecule?
A: Its value is 2%.

Q: And the “% Inh. Glutamate, AMPA” value (Glutamate, AMPA)?
A: The value was 0%.

Q: What about the inhibition at 10 µM (Adrenergic β2) of the same molecule?
A: Its inhibition at 10 µM is 11%.

Q: And the “% Inh. Glutamate, NMDA, Glycine” value (Glutamate, NMDA, Glycine)?
A: Its value is 20%.

Q: And the inhibition at 10 µM (Glucocorticoid)?
A: The inhibition at 10 µM was 9%.

Q: What about the inhibition at 10 µM (Opiate μ(OP3, MOP)) of the same molecule?
A: Its inhibition at 10 µM is 19%.

Q: And the inhibition at 10 µM (Muscarinic M1)?
A: Its inhibition at 10 µM is 3%.

Q: What about the inhibition at 10 µM (Adrenergic α1B) of the same molecule?
A: Its inhibition at 10 µM is 6%.

Q: And the inhibition at 10 µM (Cyclooxygenase COX-1)?
A: The inhibition at 10 µM was 6%.

Q: What about the inhibition at 10 µM (GABABIA) of the same molecule?
A: Its inhibition at 10 µM is 7%.

Q: And the inhibition at 10 µM (Adenosine A1)?
A: Its inhibition at 10 µM is 4%.

Q: What about the inhibition at 10 µM (Progesterone PR-B) of the same molecule?
A: The inhibition at 10 µM was 1%.

Q: And the “% Inh. Phosphodiesterase PDE4” value (Phosphodiesterase PDE4)?
A: The value was −7%.

Q: What about the inhibition at 10 µM [1] of the same molecule?
A: The inhibition at 10 µM was 5%.

Q: And the signs of toxicity [2]?
A: Its signs of toxicity is “no signs of toxicity have been observed”.

Q: And the “suppression of DC differentiation by HCC cells or CM” value [3]?
A: Its value is “reversed”.
